Measured values: US12239640B2, “Use of miloxacin in preparation of medicines for treating and/or preventing diseases with T-type calcium channels as therapeutic target” (SOOCHOW UNIVERSITY, priority 2020, dated 2025)

How the values were obtained:
[1] = tested on: CFA-induced inflammatory pain model rats; assay: Facial pain threshold of CFA-induced inflammatory pain model rats (von Frey); assay type: in vivo, rat; settings: day 2 after CFA; for effect on facial pain threshold (mechanical hyperalgesia), CFA model: at 3 h
Method: Adult healthy male SD rats weighed 200-250 g were used. Before the experiment, the animals were allowed to acclimate to the breeding environment for three days. The model was established by a routine laboratory method. CFA was injected subcutaneously into the rat's facial whisker pad at a dose of 20 μl/mouse. Individuals with hyperalgesia and swelling of […] on day 2 after CFA injection were used as the experimental subjects, that is, the rats in the experiment group. Before the behavioral test, the rats were housed in a plexiglass box on a wire mesh frame to acclimate to the environment for three consecutive days, for 1 h each time. Test method: The middle part of the whisker pad was stimulated with von Frey filament at 1 g. If there were 3 escapes in 5 consecutive stimulations, the response was positive. Then, the same operation was repeated with von Frey filament at a lower level of intensity. If there was no positive response, the middle part of the whisker pad was stimulated with von Frey filament at a higher level of intensity. The minimum intensity at which a positive response occurs is taken as the facial pain threshold, that is, the facial mechanical pain threshold. It can be seen that CFA induction can lower the facial pain threshold of rats. • 3. Effect of miloxacin on the facial pain threshold of CFA-induced inflammatory pain model rats: 27 rats with CFA-induced inflammation obtained by the above method were divided into three groups, each having 9 rats. On day 2 after CFA induction, 10 nmol miloxacin was locally injected into the trigeminal ganglion of rats in the first group, 5 nmol miloxacin was locally injected into the trigeminal ganglion of rats in the second group, and the corresponding solvent DMSO was locally injected into the trigeminal ganglion of rats in the third group. After 1 h, 3 h, 6 h, 12 h, 18 h, and 24 h, the facial pain threshold of each group was detected. […] Study on the analgesic mechanism of miloxacin in CFA-induced inflammatory pain model rats: On day 2 after CFA induction, 2 nmol TTA-P2 was locally injected into the trigeminal ganglion, and then 10 nmol miloxacin was locally injected into the trigeminal ganglion after 30 min, which was used as the TTA-P2 group. The other group was injected with the corresponding solvent DMSO, and then administered with 10 nmol miloxacin by local injection 30 min later, which was used as the solvent group. TTA-P2 is a T-type calcium channel blocker, and the solvent for TTA-P2 is DMSO.

CCI-ION model rats = assay: Facial pain threshold of trigeminal neuropathic pain (CCI-ION) model rats (von Frey); assay type: in vivo, rat; settings: day 14 after model; for effect on facial pain threshold (mechanical hyperalgesia), CCI-ION model: at 3 h
Method: Adult healthy male SD rats weighed 200-250 g were used. Before the experiment, the animals were allowed to acclimate to the breeding environment for three days. The rats were anesthetized with 4% chloral hydrate at an injection dose of 1 ml/100 g body weight. The tongue of the anesthetized rat in a supine position was pulled out and to the right to expose the left side of the mouth. At the level of the left maxillary first molar, a longitudinal incision of about 1 cm was cut along the gingival edge of the buccal aspect, and the tissue was bluntly isolated, to carefully expose the infraorbital nerve. The proximal and distal ends of the infraorbital nerve were loosely ligated with 5-0 suture, where the distance between the two ligatures was about 2 mm, and the tension was moderate. […] The process was the same as that in Example 4. It can be seen that CCI-ION can lower the facial pain threshold of rats. • 2. Effect of miloxacin on the facial pain threshold of CCI-ION model rats: 27 CCI-ION model rats obtained by the above method were divided into three groups, each having 9 rats. On day 14 after the CCI-ION model was established, 10 nmol miloxacin was locally injected into the trigeminal ganglion of rats in the first group, 5 nmol miloxacin was locally injected into the trigeminal ganglion of rats in the second group, and the corresponding solvent DMSO was locally injected into the trigeminal ganglion of rats in the third group. After 1 h, 3 h, 6 h, 9 h, 12 h, and 24 h, the facial pain threshold of each group was detected. […] Study on the analgesic mechanism of miloxacin in CCI-ION model rats: On day 14 after the CCI-ION model was established, 2 nmol TTA-P2 was locally injected into the trigeminal ganglion, and then 10 nmol miloxacin was locally injected into the trigeminal ganglion 30 min later, which was used as the TTA-P2 group. The other group was injected with the corresponding solvent DMSO, and then administered with 10 nmol miloxacin by local injection 30 min later, which was used as the solvent group.

[2] = target: T1, T-type calcium channel subtype Cav3.1 (Homo sapiens, UniProt O43497); assay: Whole-cell voltage clamp of Cav3.1 current in transfected HEK293 cells; assay type: cell-based
T1 construct: expressed in transfected cells; host or cells: HEK293 cells
Method: (§1) 1. Preparation before transfection: A flask of HEK293 cell culture was removed of the culture medium, and gently washed twice by adding 3 ml of a phosphate buffer. Then, the cells were digested by adding 1 ml of 0.25% trypsin, and pipetted by adding DMEM medium after 3-5 min to collect the cells. The cells were centrifuged at 1000 rpm for 5 min, and the supernatant was discarded. 5-10 ml of DMEM medium was added to suspend the cells. The cells were slowly pipetted again, then subcultured in a 35 mm petri dish covered with glass slides, and transfected after 24 h.
(§2) 2. Transfection: The cells were transfected by liposome transfection, where the transfection reagent was Lipofectamine 3000, and the materials used: Cav3 plasmid 1.5 μg, transfection enhancement factor (TAG) 0.25 μg, and enhanced green fluorescent protein (EGFP) 0.1 μg. 48-72 h after transfection, the whole-cell patch clamp technique was used to record fluorescent HEK293 cells, with 9-12 cells per group.
(§3) The base sequences of Cav3.1, Cav3.2 and Cav3.3 plasmids were verified by gene sequencing and confirmed by DNA Star sequence analysis and alignment software that they are respectively consistent with the sequence Nos. NM_198376.3 (Cav3.1), NM_021098.3 (Cav3.2) and NM_021096.4 (Cav3.3) published in the NCBI database.
(§4) At room temperature, Multiclamp700B amplifier was used for whole-cell voltage clamp recording. The glass electrode was a drawn electrode, and the resistance of the electrode filled with intracellular fluid was 3-5 MΩ. DigiData1322A was converted into a digital signal in pClamp10.2 software. The series resistance compensation was 70-80%. The stimulating square wave was depolarized to −30 mV with a clamping voltage of −90 mV, and then returned to the clamping potential level. The current amplitude of the T-type calcium channel at this time was recorded.
(§5) Internal pipette solution: 110 cesium chloride, 4 magnesium-ATP, 0.3 sodium-GTP, 25 HEPES, 10 EGTA. External pipette solution: 5 barium chloride, 140 tetraethylamine chloride, 5 cesium chloride, 0.5 magnesium chloride, 5.5 glucose, 10 HEPES. […]

[3] = target: T2, T-type calcium channel subtype Cav3.3 (Homo sapiens, UniProt Q9P0X4); assay: Whole-cell voltage clamp of Cav3.3 current in transfected HEK293 cells; assay type: cell-based; settings: 10 μM miloxacin, step -90 mV to -30 mV
T2 construct: expressed in transfected cells; host or cells: HEK293 cells
Method: as §1
as §2, with “group. […]” for “group.”
At room temperature, Multiclamp700B amplifier was used for whole-cell voltage clamp recording. […] The current amplitude of the T-type calcium channel at this time was recorded. […]

[4] = target: T3, T-type calcium channel subtype Cav3.2 (Homo sapiens, UniProt O95180); assay: Whole-cell voltage clamp of Cav3.2 current in transfected HEK293 cells; assay type: cell-based
T3 construct: expressed in transfected cells; host or cells: HEK293 cells
Method: as §1, §2, §3, §4, §5

[5] = tested on: trigeminal ganglion neurons; assay: Firing of neuronal action potential in acutely dissociated rat trigeminal ganglion neurons (current clamp); assay type: cell-based; settings: 10 μM miloxacin, 180 pA for 1 sec; control 13.3±1.5
Method: The process was the same as that in Example 2. At room temperature, Multiclamp 700B amplifier was used for whole-cell current clamp recording. A current of 180 pA was injected into the cell for 1 sec to stabilize the cell at −70 mV, and the frequency of the generated action potential was recorded. Internal pipette solution: 10 sodium chloride, 110 potassium chloride, 2 EGTA, 25 HEPES, 0.5 sodium-GTP, 4 magnesium-ATP. External pipette solution: 2 potassium chloride, 128 sodium chloride, 2 calcium chloride, 2 magnesium chloride, 30 glucose, 25 HEPES. The unit is mM, that is, millimoles/liter. 10 μM miloxacin was directly administered to the T-type calcium channel in the trigeminal ganglion neurons as the treatment group. The groups before miloxacin administration were used as control groups.

T-type calcium channel = T-type calcium channel current in acutely dissociated primary rat trigeminal ganglion neurons; assay type: cell-based
Source text: Specifically, trigeminal ganglion neurons from adult male SD rats were acutely dissociated under the conditions of enzymatic hydrolysis of trigeminal ganglion neurons (Zhang Y et al., J Pineal Res, 2018, 64, e12476).
The trigeminal ganglia of male SD rats weighed about 220 g were exposed after anesthesia. The bilateral trigeminal ganglia were taken by using microscopic dissecting forceps, removed of their fiber connections, and then immediately placed in ice-cold oxygenated DMEM medium. The trigeminal ganglion in the culture medium was transferred into 3 mg/ml collagenase digestion solution, cut into pieces with microscissors, and digested at 37° C. for 45 min, and then digested in 2 mg/ml trypsin digestion solution for another 15 min. After the above operations, the digestion was terminated by adding DMEM medium containing 10% fetal bovine serum. The cells were dispersed by repeatedly pipetting, and filtered through a 40 μm cell sieve. The resulting suspension was centrifuged at 800 rpm for 3 min. After centrifugation, the supernatant was discarded, and the cell pellet was resuspended in DMEM medium. After resuspension, the cell suspension was seeded on a cover glass pre-coated with polylysine in a 24-well culture plate, and placed in an incubator at 37° C. with 5% CO2 for later use.
The process was the same as that in Example 1. […]

normal rats = assay: Facial pain threshold of normal rats (von Frey); assay type: in vivo, rat; settings: 10 nmol injected into trigeminal ganglion, vs. solvent group
Method: Before the behavioral test, the rats were housed in a plexiglass box on a wire mesh frame to acclimate to the environment for three consecutive days, for 1 h each time. Test method: The middle part of the whisker pad was stimulated with von Frey filament at 1 g. If there were 3 escapes in 5 consecutive stimulations, the response was positive. Then, the same operation was repeated with von Frey filament at a lower level of intensity. If there was no positive response, the middle part of the whisker pad was stimulated with von Frey filament at a higher level of intensity. The minimum intensity at which a positive response occurs is taken as the facial pain threshold, that is, the facial mechanical pain threshold. • 1. Effect of miloxacin on the facial pain threshold of normal rats (without CFA induction): 20 normal rats were divided into two groups, each having 10 rats. The first group was a solvent group, and the second group was a treatment group. 10 nmol miloxacin was injected into the trigeminal ganglion of the second group of rats, and the corresponding solvent DMSO was injected into the trigeminal ganglion of the first group of rats.

[6] = 2 nmol local injection into trigeminal ganglion
[7] = 10 μM miloxacin, step -90 mV to -30 mV
[8] = 5 nmol local injection into trigeminal ganglion
[9] = 10 nmol local injection into trigeminal ganglion
[10] = 10 nmol miloxacin 30 min after 2 nmol TTA-P2, trigeminal ganglion

T1 sequence (O43497 1-2171 isoform O43497-5): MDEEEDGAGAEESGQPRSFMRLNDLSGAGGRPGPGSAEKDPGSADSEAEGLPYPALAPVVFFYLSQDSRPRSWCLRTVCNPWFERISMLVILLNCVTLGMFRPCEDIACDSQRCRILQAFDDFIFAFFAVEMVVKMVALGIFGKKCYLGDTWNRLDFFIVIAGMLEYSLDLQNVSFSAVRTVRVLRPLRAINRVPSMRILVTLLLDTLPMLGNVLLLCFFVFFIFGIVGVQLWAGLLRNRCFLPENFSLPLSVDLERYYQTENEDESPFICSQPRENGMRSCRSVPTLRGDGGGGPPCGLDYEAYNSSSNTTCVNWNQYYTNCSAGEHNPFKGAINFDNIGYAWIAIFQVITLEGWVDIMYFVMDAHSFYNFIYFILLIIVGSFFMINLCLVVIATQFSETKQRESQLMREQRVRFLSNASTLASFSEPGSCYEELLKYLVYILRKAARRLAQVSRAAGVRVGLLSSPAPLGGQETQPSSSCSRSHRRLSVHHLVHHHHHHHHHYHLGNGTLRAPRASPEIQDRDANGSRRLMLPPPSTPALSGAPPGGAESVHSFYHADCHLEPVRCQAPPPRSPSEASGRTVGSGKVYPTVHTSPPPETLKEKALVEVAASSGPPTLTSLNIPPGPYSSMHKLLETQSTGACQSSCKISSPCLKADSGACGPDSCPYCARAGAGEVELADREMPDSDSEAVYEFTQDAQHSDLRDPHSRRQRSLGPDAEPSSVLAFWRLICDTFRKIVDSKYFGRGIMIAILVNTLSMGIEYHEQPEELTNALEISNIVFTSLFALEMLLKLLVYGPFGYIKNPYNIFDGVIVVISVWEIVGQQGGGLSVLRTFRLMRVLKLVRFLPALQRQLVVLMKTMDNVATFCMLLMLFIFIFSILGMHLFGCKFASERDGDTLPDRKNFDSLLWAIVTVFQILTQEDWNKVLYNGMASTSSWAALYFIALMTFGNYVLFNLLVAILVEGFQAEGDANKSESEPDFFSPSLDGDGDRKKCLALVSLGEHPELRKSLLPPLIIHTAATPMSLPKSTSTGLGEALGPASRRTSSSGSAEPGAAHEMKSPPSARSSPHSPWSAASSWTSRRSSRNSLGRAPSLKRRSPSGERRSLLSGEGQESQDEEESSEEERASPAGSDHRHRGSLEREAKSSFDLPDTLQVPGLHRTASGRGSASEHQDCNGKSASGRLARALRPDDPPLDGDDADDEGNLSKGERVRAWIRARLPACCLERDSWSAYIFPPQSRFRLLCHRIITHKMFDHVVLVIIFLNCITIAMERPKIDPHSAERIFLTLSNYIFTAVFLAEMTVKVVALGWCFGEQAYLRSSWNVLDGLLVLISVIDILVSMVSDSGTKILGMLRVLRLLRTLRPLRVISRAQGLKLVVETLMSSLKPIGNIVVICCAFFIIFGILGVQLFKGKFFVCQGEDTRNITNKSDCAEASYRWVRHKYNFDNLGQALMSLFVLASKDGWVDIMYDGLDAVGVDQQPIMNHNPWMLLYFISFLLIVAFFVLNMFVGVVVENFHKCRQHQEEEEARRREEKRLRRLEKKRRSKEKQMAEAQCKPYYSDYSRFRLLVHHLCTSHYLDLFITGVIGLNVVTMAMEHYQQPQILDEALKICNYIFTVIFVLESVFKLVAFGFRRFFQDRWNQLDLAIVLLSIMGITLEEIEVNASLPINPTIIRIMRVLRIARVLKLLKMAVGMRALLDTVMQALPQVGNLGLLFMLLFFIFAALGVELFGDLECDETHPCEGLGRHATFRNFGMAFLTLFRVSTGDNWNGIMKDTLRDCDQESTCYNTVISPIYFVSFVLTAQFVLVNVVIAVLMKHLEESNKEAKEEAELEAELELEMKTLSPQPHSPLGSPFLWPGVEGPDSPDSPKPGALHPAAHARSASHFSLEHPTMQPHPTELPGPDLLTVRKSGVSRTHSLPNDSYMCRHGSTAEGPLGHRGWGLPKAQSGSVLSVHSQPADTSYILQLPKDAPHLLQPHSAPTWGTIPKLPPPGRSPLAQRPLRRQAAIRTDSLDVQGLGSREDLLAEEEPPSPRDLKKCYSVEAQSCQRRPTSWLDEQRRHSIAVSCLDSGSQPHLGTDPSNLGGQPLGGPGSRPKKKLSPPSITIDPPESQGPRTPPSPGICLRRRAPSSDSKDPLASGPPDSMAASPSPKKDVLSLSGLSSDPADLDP
T3 sequence (O95180 whole entry): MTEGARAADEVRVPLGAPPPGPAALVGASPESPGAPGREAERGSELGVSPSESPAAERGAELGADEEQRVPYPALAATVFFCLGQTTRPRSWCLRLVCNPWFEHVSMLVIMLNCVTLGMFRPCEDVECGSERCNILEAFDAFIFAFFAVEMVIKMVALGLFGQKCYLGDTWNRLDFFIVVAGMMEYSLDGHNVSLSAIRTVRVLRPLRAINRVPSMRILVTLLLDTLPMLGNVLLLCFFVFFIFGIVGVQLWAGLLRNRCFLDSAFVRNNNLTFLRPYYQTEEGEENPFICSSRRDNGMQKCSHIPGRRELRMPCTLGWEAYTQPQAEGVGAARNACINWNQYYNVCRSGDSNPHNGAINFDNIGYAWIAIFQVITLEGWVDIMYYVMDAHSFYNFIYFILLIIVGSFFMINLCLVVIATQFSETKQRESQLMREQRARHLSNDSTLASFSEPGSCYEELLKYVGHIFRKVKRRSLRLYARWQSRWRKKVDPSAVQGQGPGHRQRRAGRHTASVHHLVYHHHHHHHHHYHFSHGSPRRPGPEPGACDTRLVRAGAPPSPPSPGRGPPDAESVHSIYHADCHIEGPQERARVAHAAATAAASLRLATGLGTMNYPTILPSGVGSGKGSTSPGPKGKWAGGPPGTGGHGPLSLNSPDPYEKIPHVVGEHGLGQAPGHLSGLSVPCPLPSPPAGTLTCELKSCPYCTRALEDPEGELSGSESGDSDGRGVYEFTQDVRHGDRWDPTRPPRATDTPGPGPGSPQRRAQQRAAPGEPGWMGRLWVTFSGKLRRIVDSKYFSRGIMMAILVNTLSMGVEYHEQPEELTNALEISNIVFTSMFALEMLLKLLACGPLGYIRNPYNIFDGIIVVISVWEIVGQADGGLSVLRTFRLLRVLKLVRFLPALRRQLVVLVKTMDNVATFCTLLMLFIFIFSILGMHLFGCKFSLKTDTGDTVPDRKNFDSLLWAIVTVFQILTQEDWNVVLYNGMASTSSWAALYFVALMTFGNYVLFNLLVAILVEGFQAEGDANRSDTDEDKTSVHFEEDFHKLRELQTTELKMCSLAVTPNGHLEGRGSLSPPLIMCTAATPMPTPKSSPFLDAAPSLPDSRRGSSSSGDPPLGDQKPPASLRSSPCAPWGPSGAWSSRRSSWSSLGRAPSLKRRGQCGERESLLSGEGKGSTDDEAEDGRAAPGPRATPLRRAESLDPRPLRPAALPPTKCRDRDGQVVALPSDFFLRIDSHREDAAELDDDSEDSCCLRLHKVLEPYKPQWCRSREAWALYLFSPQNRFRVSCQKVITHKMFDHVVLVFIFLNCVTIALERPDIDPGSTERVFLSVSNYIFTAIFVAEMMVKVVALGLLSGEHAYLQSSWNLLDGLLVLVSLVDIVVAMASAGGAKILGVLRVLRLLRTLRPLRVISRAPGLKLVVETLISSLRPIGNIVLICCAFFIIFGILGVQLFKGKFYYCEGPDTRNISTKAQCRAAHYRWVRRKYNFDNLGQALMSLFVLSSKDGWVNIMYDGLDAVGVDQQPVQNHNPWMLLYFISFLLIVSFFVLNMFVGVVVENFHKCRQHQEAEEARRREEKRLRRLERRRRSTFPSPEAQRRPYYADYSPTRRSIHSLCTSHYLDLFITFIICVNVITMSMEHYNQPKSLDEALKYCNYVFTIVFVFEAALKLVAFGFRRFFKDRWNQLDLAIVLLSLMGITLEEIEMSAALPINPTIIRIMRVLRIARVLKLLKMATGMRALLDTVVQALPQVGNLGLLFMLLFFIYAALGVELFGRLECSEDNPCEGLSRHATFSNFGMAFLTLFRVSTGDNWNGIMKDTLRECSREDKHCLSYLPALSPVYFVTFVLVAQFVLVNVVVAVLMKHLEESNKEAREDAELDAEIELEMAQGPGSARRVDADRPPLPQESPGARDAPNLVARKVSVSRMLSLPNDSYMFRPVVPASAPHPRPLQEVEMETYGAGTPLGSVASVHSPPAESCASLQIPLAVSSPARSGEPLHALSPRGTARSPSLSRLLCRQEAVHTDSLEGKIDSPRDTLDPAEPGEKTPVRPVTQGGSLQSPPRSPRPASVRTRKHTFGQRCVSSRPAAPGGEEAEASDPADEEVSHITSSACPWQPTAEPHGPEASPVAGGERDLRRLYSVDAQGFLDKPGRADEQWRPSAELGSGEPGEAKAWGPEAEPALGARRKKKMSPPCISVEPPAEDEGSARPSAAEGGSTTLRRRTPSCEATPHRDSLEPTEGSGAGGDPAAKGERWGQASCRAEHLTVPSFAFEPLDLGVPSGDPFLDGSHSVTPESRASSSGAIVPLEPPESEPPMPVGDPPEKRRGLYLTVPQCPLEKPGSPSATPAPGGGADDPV

inactivation constant V1/2 of subtype Cav3.1, left shift ([2]; 10 μM miloxacin vs. control) | subtype Cav3.1 current reduced compared to control [2, 7] | IC50 ([2]; dose-effect curve) | subtype Cav3.3 current reduced compared to control [3] | inactivation constant V1/2 of subtype Cav3.2, left shift ([4]; 10 μM miloxacin vs. control) | subtype Cav3.2 current reduced compared to control [4, 7] | IC50 ([4]; dose-effect curve) | IC50 (T-type calcium channel; dose-effect curve) | SMILES | effect of TTA-P2 on facial pain threshold, CFA model [1, 6] | effect of TTA-P2 on facial pain threshold, CCI-ION model (CCI-ION model rats; [6]) | effect on facial pain threshold (mechanical hyperalgesia), CFA model [1, 8] | effect on facial pain threshold (mechanical hyperalgesia), CFA model [1, 9] | effect of miloxacin after TTA-P2 on facial pain threshold, CFA model [1, 10] | effect on facial pain threshold (mechanical hyperalgesia), CCI-ION model (CCI-ION model rats; [8]) | effect on facial pain threshold (mechanical hyperalgesia), CCI-ION model (CCI-ION model rats; [9]) | effect of miloxacin after TTA-P2 on facial pain threshold, CCI-ION model (CCI-ION model rats; [10]) | action potential (number in a 1-sec stimulation course) [5] | T-type calcium channel current reduced compared to control (T-type calcium channel; 10 μM miloxacin) | effect on facial pain threshold of normal rats (normal rats)
– | – | – | – | – | – | – | – | CC1(C)C[C@@H](CN2CCC(F)(CNC(=O)c3cc(Cl)cc(Cl)c3)CC2)CCO1 [TTA-P2, 3,5-dichloro-N-[[4-fluoro-1-[[(4S)-tetrahydro-2,2-dimethyl-2H-pyran-4-yl]methyl]-4-piperidine]methyl]benzamide] | can increase the facial pain threshold | can increase the facial pain threshold | – | – | – | – | – | – | – | – | –
6.5±0.7 mV | 49.6±2.9% | 6.5 ± 0.9 µM | 2.1±0.7% | 8.5±0.3 mV | 57.2±3.3% | 8.2 ± 0.6 µM | 7.7 ± 0.6 µM | COn1cc(C(=O)O)c(=O)c2cc3c(cc21)OCO3 [miloxacin] | – | – | significantly reversed mechanical hyperalgesia | significantly reversed mechanical hyperalgesia | does not further increase the facial pain threshold | significantly reversed mechanical hyperalgesia | significantly reversed mechanical hyperalgesia | does not further increase the facial pain threshold | 6.1±0.3 | 52.7±2.6% | does not affect the facial pain threshold
